Data on three molecules can be found in patent US12636294B2, “Compositions and methods for the treatment or prevention of traumatic brain injury” (priority 2019, dated 2026).

Data set [1] relates to rat model of TBI induced by controlled cortical impact (CCI). The data set is described as follows: Rotarod test, motor function after CCI injury. It is filed as in vivo, Sprague-Dawley (SD) rats. Conditions: observed; for E (normalised activity value used to calculate synergy), Rotarod latencies: (X-placebo)/(sham-placebo); for Latency: Rotarod 7-days post-head injury, CBD 20 mg/kg I.P LD + MD x 6, isoflurane 1.5% inhaled LD. Here is the method: (§1) The effect of cannabidiol (CBD) combined with isoflurane therapy was assessed using a rat model of TBI induced by controlled cortical impact (CCI). Briefly, Sprague-Dawley (SD) rats were anaesthetised with 3% pentobarbital sodium before fixing the head in a stereotaxic frame. After performing a craniotomy, a contusion injury (CCI) was induced with an IMP-3000 TBI Impactor with a diameter of 5.0 mm, a depth of 2.5 mm, dwell time of 100 ms and velocity of 5 m/s. Control rats underwent the same surgical procedure, including craniotomy, without CCI.
(§2) The randomised groups are detailed in Table 2.
(§3) Behavioural outcomes following CCI were assessed using the Morris Water Maze (MWM), which assesses cognitive defects after CCI injury (see, e.g., Nunez, 2008, Journal of Visualized Experiments, 897) and the Rotarod test, which assesses changes in motor function (see, e.g., Shiotsuki et al., 2010, Journal of Neuroscience Methods, 189: 180-185).
(§4) The combinatorial neuroprotective effects of CBD and isoflurane were assessed using a rat controlled cortical impact model of TBI. Briefly, head injury is induced in the rats by first performing a craniotomy to remove a small disc of bone from the skull and then using a pneumatic rod to directly impact the exposed brain. Controlled Cortical Impact (CCI) parameters used in this study were 2.5 mm depth, 5 m/s velocity, 100 ms dwell time. Sham control animals underwent an identical surgical procedure, including craniotomy, but without the CCI injury.
(§5) Animals were treated with CBD (20 mg/kg) and isoflurane (1.5%) both alone and in combination (Table 2). A loading dose comprising CBD and isoflurane was administered sequentially, with CBD administered 15-30 min post injury and isoflurane administered 1-2 h after injury. Daily maintenance doses of CBD were administered for six consecutive days after administration of the loading dose.
(§6) To determine the neuroprotective effects associated with the combination of CBD and isoflurane, the MWM, a well-established assay for investigation of spatial learning and memory (Nunez, 2008, supra; D'Hooge et al., 2001, Brain Research Reviews, 36: 60-90), and the Rotarod, a device used to monitor motor coordination (Deacon, 2013, Journal of Visualized Expreiments, e2609-e2609; Shitosuki et al., 2010, supra), were used 7-days post-head injury. The predicted combinatorial effects of CBD and isoflurane were calculated using the Bliss independence principle using the equation: Epred A+B=(EA+EB)−(EAEB)
(§7) The activity of the combination for this equation was calculated as: (X−placebo)/(sham−placebo)

The conditions of data set [2]: after inhalation; general statement, no experiment described; cited from earlier work.
Data set [3] relates to rat model of TBI induced by controlled cortical impact (CCI). Put plainly: Morris Water Maze (MWM), spatial learning and memory after CCI injury. The class given is in vivo, Sprague-Dawley (SD) rats. The conditions noted are these: observed; for E (normalised activity value used to calculate synergy), MWM proportion of rats that reached the platform / E (normalised activity value used to calculate synergy), MWM instances of rats reaching the platform: (X-placebo)/(sham-placebo); for E (normalised activity value used to calculate synergy), MWM instances of rats reaching the platform: 7-days post-head injury; for Instances of centre of rat corresponding to platform location normalised to the number of rats in group / Number of rats that reached the platform normalised to the total number of rats in each group: MWM 7-days post-head injury; for Instances of centre of rat corresponding to platform location normalised to the number of rats in group: CBD 20 mg/kg I.P LD 15-30 min post-injury + MD x 6, isoflurane 1.5% inhaled LD at 1 hr post-injury; for Number of rats that reached the platform normalised to the total number of rats in each group: CBD 20 mg/kg I.P LD + MD x 6, isoflurane 1.5% inhaled LD. On the procedure: as §1, §2, §3, §4, §5, §6, §7
In the MWM a rat is trained to recognise where a platform is located in a water tank over a series of days. It is then released into the tank and monitored for the ability to locate the platform. A lack of ability to locate the platform is indicative of a spatial memory neurocognitive deficit.

The conditions of data set [4]: general statement, no experiment described; cited from earlier work.

Take `C=C(C)[C@@H]1CCC(C)=C[C@H]1c1c(O)cc(CCCCC)cc1O` [CBD, cannabidiol]: in data set [1], the “E (normalised activity value used to calculate synergy), Rotarod latencies” value was −0.04 and the “Latency” value turned out to be 17.60 s. For the same molecule, the “Time to achieve significant CNS concentrations” value in data set [2] is “within two minutes”. Also, in data set [3], the “E (normalised activity value used to calculate synergy), MWM proportion of rats that reached the platform” value was 0.21; the “E (normalised activity value used to calculate synergy), MWM instances of rats reaching the platform” value was −0.2; the “Instances of centre of rat corresponding to platform location normalised to the number of rats in group” value is 0.4; the “Number of rats that reached the platform normalised to the total number of rats in each group” value was 0.4.

On to `COC(F)(F)C(Cl)Cl` [Methoxyflurane, methoxyflurane], for which the Lipid solubility result in data set [4] was “highly lipid-soluble”. The “Time to achieve significant CNS concentrations” value in data set [2] was not above 2 min.

`FC(F)OC(Cl)C(F)(F)F` (stereo not drawn) [isoflurane]: in data set [1], the “E (normalised activity value used to calculate synergy), Rotarod latencies” value is listed as −0.09 and the “Latency” value is given as 17.33 s. In data set [3], the “E (normalised activity value used to calculate synergy), MWM proportion of rats that reached the platform” value is 0.50; the “E (normalised activity value used to calculate synergy), MWM instances of rats reaching the platform” value was 0.67; the “Instances of centre of rat corresponding to platform location normalised to the number of rats in group” value is 0.83; the “Number of rats that reached the platform normalised to the total number of rats in each group” value is given as 0.5.
